Measurements from US10501447B2, “Imidazolecarboxamides and their use as FAAH inhibitors” (BIAL-PORTELA & Ca, S.A., priority 2013, dated 2019).

Tests used:
[1] = CYPs metabolic stability assay in MLM; format: in vitro ADME, mouse; details: 1 h, 50 μM compound; for Metabolic Stability (% of Remaining) Mouse CYP+: with NADPH; for Metabolic Stability (% of Remaining) Mouse CYP−: without NADPH (control value)
Protocol: (§1) Stability of the test compounds was performed in MLM (mouse liver microsomes) or HLM (human liver microsomes) in the presence and in the absence of NADPH.
(§2) The stability was measured using the incubation mixture (100 μl total volume) contained 1 mg/ml total protein, MgCl2 5 mM and 50 mM K-phosphate buffer. Samples were incubated in the presence and in the absence of NADPH 1 mM. Reactions were pre-incubated 5 min and the reaction initiated with the compound under test (5 μM for HLM and 50 μM for MLM). Samples were incubated for 60 min in a shaking water bath at 37° C. The reaction was stopped by adding 100 μl of acetonitrile. Samples were then centrifuged, filtered and supernatant injected in HLPC-MSD. Test compounds were dissolved in DMSO and the final concentration of DMSO in the reaction was below 0.5% (v/v). At T0 acetonitrile was added before adding the compound. All experiments were performed with samples in duplicate.
(§3) The stability data are given as % of remaining compound after 1 h exposure to MLM or HLM. 100% means no metabolic reaction at all and 0% corresponds to full enzymatic degradation. “CYP−” refers to the absence of cofactor (NADPH) which is essential for CYP metabolic reactions. Therefore “CYP−” can be regarded as control value. “CYP+” refers to the presence of cofactor and the enzymatic degradation may take place according to the stability of the test compound.

[2] = target: T1, FAAH (Mus musculus, UniProt O08914); test: FAAH activity in brain homogenate after oral dosing of mice; format: in vivo; details: 8 h, remaining activity vs controls, low value = strong inhibitor, read-out: FAAH Activity (%) Br h
T1 construct: A fragment of liver and brain without cerebellum were removed and put in plastic vials containing membrane buffer; from tissue; host or cells: brain (without cerebellum) and liver homogenates of male NMRI mice
T1 sequence (O08914 1-579): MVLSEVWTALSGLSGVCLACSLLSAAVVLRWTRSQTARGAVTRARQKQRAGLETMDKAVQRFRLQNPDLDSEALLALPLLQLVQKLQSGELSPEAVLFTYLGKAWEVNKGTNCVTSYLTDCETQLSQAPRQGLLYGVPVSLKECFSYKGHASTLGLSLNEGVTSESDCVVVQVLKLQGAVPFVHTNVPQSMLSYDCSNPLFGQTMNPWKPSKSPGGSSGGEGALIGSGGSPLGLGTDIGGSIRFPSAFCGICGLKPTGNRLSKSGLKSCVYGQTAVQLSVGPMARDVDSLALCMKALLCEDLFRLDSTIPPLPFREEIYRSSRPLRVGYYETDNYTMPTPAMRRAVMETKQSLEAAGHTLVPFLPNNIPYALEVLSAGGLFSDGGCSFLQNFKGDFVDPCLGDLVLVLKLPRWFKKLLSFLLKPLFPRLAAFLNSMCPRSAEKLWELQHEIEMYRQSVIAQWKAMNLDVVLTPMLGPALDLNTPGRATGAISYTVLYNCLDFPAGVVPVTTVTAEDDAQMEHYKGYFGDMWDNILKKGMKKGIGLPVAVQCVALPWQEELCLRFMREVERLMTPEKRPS
Protocol: In vivo testing was performed according to the protocol described below. BRh (brain homogenate) indicates inhibition in central nervous tissue, in this case, brain, and LVh (liver homogenate) indicates inhibition in peripheral tissue, in this case, liver. The controls were the reaction mix minus the test compounds. Therefore, a low value for the test compound indicates a strong inhibitor.
The animals used for experiments were male NMRI mice (weighing 27-44 g) obtained from Interfauna Ibérica (Spain). Mice were kept 5 per cage, under controlled environmental conditions (12 hr light/dark cycle and room temperature 22±1° C.). Food and tap water were allowed ad libitum and the experiments were all carried out during daylight hours.
Animals were always fasted overnight before administration of compounds.
Animals were administered the appropriate dose of the compound of the invention via oral route (8 ml/kg; compound suspended in 0.5% carboxymethylcellulose (CMC) or solubilized in water) or vehicle (controls) using animal feeding stainless steel curve needles (Perfectum, U.S.A.). Fifteen minutes before sacrifice animal were anesthetized with pentobarbital 60 mg/kg administered intraperitoneally. A fragment of liver and brain without cerebellum were removed and put in plastic vials containing membrane buffer (3 mM MgCl2, 1 mM EDTA, 50 mM Tris HCl pH 7.4). Tissues were stored at −30° C. until analysis.
Anandamide [ethanolamine-1-^3H-] (40-60 Ci/mmol) was obtained from American Radiochemicals. All other reagents were obtained from Sigma-Aldrich. […]
Total protein in tissues was determined with the BioRad Protein Assay (BioRad) using a standard curve of BSA (50-250 μg/ml).
Reaction mix (total volume of 200 μl) contained: 2 μM AEA (2 μM AEA+5 nM ^3H-AEA), 0.1% fatty acid free BSA, 15 μg (brain) or 5 μg (liver) protein, in 1 mM EDTA, 10 mM Tris pH 7.6. […] Counts per minute (cpm) were determined in a MicrobetaTriLux scintillation counter. […]
The percentage of remaining enzymatic activity was calculated with respect to controls and after blank subtraction.

[3] = CYPs metabolic stability assay in HLM; format: in vitro ADME, human; details: 1 h, 5 μM compound; for Metabolic Stability (% of Remaining) Human CYP+: with NADPH; for Metabolic Stability (% of Remaining) Human CYP−: without NADPH (control value)
Protocol: as §1, §2, §3

Compound | Metabolic Stability (% of Remaining) Mouse CYP+ [1] [%] | Metabolic Stability (% of Remaining) Mouse CYP− [1] [%] | activity at 3 mg/kg [2] [%] | Metabolic Stability (% of Remaining) Human CYP+ [3] [%] | Metabolic Stability (% of Remaining) Human CYP− [3] [%]
CN(C(=O)n1cnc(-c2cccc(NS(N)(=O)=O)c2)c1)C1CCOCC1 [Compound 1, N-Methyl-4-(3-(sulfamoylamino)phenyl)-N-(tetrahydro-2H-pyran-4-yl)-1H-imidazole-1-carboxamide] | 93 | 100 | 117 | 96 | 102
CCC(=O)N1CCC(N(C)C(=O)n2cnc(-c3ccc(O)c(C)c3)c2)CC1 [Compound 2, 4-(4-Hydroxy-3-methylphenyl)-N-methyl-N-(1-propionylpiperidin-4-yl)-1H-imidazole-1-carboxamide] | 86 | 83 | 81.7 | 100 | 94
Cc1cc(-c2cn(C(=O)N(C)C3CCN(C(=O)C4CC4)CC3)cn2)ccc1O [Compound 3, N-(1-(Cyclopropanecarbonyl)piperidin-4-yl)-4-(4-hydroxy-3-methylphenyl)-N-methyl-1H-imidazole-1-carboxamide] | 98 | 91 | 91.7 | 99 | 102
